We go through 1 compound from ChEMBL document CHEMBL5113421, “Development of novel conformationally restricted selective Clk1/4 inhibitors through creating an intramolecular hydrogen bond involving an imide linker” (Eur J Med Chem, 2022).

Assay [1] addresses T1, Dual specificity protein kinase CLK1 (Homo sapiens, UniProt P49759). The assay is described as follows: Inhibition of human recombinant GST-tagged Clk1 (129 to 484 residues) expressed in Escherichia coli expression system using GRSRSRSRSRSRSRS peptide as substrate incubated for 15 mins in presence of ATP by phosphoimager analysis.
Target sequence in this assay (P49759 whole entry, the tested form may be a part): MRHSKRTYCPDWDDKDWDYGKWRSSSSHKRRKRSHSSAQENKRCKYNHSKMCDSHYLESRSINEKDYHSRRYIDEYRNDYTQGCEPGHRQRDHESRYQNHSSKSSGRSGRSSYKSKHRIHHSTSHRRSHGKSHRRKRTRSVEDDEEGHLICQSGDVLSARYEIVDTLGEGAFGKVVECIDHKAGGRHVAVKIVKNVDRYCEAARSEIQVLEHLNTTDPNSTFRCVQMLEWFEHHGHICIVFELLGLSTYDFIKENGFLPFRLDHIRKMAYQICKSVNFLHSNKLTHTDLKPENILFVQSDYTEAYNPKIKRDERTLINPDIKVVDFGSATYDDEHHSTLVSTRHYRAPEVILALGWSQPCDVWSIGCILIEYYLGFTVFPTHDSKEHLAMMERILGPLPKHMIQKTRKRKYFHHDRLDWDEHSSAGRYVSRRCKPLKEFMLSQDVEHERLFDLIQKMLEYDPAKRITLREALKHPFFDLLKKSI
The species entered for assay [2] is Homo sapiens. The assay is described as follows: Inhibition of CK2 (unknown origin) at 1 uM relative to control.
Assay [3] concerns the target T2, Dual specificity protein kinase CLK4 (Homo sapiens, UniProt Q9HAZ1). Briefly: Inhibition of human recombinant GST tagged full length CLK4 expressed in Baculovirus expression system at 1 uM.
Target sequence in this assay (Q9HAZ1 whole entry): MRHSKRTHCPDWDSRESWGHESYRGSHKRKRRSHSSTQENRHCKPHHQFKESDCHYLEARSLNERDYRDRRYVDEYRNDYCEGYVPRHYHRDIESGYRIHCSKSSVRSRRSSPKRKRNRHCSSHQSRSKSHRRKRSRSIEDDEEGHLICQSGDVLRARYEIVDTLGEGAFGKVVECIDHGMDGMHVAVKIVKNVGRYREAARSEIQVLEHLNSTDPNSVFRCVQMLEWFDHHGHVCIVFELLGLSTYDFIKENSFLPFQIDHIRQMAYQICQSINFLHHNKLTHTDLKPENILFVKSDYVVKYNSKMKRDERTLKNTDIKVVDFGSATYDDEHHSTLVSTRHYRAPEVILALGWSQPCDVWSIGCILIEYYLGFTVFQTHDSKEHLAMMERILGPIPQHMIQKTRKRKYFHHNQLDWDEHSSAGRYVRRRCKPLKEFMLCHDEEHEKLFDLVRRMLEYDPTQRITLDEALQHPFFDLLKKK
For assay [4], the species on record is Homo sapiens. Briefly: Selectivity index, ratio of IC50 for human Clk2 to IC50 for human Clk1 by phosphoimager analysis.
Assay [5] concerns the target Dual specificity protein kinase CLK3 (Homo sapiens) (UniProt P49761). Briefly: Inhibition of human recombinant GST-tagged full length CLK3 expressed in Baculovirus expression system at 1 uM relative to control.
In assay [6] the target is T3, Dual specificity protein kinase CLK2 (Homo sapiens, UniProt P49760). The assay is described as follows: Inhibition of human recombinant GST-tagged Clk2 expressed in Baculovirus expression system at 0.25 uM using GRSRSRSRSRSRSRS peptide as substrate incubated for 15 mins in presence of ATP by phosphoimager analysis relative to control.
Assay [7] concerns the target Dual specificity tyrosine-phosphorylation-regulated kinase 1A (Homo sapiens) (UniProt Q13627). The assay is described as follows: Inhibition of human recombinant GST tagged full length DYRK1A expressed in Baculovirus expression system at 1 uM relative to control.
Assay [8] addresses T3, Dual specificity protein kinase CLK2. Briefly: Inhibition of human recombinant GST-tagged Clk2 expressed in Baculovirus expression system using GRSRSRSRSRSRSRS peptide as substrate incubated for 15 mins in presence of ATP by phosphoimager analysis.
Assay [9] concerns the target SRSF protein kinase 1 (Homo sapiens) (UniProt Q96SB4). The assay is described as follows: Inhibition of human recombinant His tagged full length SRPK1 expressed in Baculovirus expression system at 1 uM relative to control.
Assay [10] concerns the target BDNF/NT-3 growth factors receptor (Homo sapiens) (UniProt Q16620). Briefly: Inhibition of human recombinant His tagged full length TRKB expressed in Baculovirus expression system at 1 uM relative to control.
The subject of assay [11] is T-24. The assay is described as follows: Antiproliferative activity against human T24 cells assessed as cell growth inhibition measured after 3 days by MTT assay. Type of assay: functional. The note with it: T-24, 72 h, time 3 day. On the technique in general: Tetrazolium assays rely on reduction of a dye to a coloured formazan, in cell work by metabolically active cells.

Assay [12] addresses Serine/threonine-protein kinase pim-1 (Homo sapiens) (UniProt P11309). The assay is described as follows: Inhibition of human recombinant His tagged full length Pim1 expressed in Baculovirus expression system at 1 uM relative to control.
In assay [13] the target is Homeodomain-interacting protein kinase 1 (Homo sapiens) (UniProt Q86Z02). The assay is described as follows: Inhibition of human recombinant GST tagged HIPK1 expressed in Baculovirus expression system at 1 uM relative to control.
Sequence of Homeodomain-interacting protein kinase 1 (Homo sapiens) (Q86Z02 whole entry, looked up): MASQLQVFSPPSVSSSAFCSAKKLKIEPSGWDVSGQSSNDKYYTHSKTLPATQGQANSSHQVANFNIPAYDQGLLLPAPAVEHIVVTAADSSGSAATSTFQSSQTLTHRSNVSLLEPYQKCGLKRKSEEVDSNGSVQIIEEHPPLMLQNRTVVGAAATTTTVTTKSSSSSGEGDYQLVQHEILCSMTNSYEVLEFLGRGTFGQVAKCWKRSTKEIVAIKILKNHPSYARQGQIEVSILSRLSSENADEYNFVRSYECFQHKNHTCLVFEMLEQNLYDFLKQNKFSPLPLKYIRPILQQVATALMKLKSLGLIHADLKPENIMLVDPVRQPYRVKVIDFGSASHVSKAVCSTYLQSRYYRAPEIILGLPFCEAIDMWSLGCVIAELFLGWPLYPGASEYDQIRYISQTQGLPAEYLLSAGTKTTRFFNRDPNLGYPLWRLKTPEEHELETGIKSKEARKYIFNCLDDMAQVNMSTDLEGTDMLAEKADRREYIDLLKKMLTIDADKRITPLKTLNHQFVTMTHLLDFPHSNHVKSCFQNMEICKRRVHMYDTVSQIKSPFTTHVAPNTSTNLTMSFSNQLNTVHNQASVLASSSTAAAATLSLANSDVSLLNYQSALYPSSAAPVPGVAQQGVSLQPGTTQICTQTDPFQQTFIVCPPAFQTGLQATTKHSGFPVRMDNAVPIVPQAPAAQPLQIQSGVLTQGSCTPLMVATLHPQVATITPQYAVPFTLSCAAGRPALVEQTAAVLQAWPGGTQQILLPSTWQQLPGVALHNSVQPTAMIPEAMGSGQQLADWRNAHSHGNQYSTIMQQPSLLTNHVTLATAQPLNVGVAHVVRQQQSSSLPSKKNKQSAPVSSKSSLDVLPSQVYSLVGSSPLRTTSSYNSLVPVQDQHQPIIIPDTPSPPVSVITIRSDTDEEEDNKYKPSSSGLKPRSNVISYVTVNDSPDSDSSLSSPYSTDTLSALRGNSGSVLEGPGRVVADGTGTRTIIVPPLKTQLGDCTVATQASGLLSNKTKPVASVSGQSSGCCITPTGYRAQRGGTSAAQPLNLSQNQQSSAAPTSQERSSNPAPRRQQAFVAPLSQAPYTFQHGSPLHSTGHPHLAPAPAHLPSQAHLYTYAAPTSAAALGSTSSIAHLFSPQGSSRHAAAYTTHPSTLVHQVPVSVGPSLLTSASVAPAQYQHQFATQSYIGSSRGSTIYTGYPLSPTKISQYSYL
Assay [14] deals with T4, Serine/threonine-protein kinase haspin (Homo sapiens) (UniProt Q8TF76).
T4 sequence (whole entry): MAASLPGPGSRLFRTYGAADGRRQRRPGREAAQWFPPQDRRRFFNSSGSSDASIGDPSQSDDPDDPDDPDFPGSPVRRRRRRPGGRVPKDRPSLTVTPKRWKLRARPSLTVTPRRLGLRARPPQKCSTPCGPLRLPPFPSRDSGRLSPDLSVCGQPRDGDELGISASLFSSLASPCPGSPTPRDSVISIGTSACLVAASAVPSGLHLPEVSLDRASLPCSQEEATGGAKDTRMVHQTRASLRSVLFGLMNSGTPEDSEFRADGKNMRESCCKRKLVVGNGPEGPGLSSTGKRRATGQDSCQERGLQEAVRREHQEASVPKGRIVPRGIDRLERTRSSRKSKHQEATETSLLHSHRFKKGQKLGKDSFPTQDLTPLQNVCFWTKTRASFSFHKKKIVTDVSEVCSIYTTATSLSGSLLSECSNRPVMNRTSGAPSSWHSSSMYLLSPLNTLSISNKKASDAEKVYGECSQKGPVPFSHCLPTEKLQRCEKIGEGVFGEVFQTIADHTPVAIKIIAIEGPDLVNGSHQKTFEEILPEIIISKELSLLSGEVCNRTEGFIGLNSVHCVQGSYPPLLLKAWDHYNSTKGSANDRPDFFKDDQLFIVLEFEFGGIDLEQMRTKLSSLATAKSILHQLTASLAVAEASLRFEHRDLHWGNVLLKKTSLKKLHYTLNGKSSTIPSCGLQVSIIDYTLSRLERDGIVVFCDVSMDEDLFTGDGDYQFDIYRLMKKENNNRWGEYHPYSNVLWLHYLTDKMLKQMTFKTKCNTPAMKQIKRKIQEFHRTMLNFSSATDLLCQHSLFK
Briefly: Inhibition of human recombinant GST tagged full length Haspin catalytic domain expressed in Baculovirus expression system at 1 uM relative to control.

The target of assay [15] is T5, Dual specificity tyrosine-phosphorylation-regulated kinase 2 (Homo sapiens) (UniProt Q92630).
T5 sequence (whole entry): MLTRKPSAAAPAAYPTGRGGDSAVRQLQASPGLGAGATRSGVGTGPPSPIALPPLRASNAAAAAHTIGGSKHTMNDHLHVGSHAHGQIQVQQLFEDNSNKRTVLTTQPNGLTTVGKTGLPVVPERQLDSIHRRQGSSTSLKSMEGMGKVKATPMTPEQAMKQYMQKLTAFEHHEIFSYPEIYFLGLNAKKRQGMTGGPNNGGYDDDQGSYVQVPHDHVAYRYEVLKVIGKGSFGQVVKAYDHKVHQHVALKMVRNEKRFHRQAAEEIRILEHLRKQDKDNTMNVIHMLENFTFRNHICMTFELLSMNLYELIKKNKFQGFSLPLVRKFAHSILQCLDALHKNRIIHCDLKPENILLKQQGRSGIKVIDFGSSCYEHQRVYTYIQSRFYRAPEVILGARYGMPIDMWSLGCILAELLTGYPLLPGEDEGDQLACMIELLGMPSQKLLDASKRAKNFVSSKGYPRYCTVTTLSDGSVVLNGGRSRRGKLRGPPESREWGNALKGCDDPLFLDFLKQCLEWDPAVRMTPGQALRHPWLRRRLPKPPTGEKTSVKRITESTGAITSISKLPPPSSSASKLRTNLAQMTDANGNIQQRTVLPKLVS
The assay is described as follows: Inhibition of human recombinant GST tagged full length DYRK2 expressed in Escherichia coli expression system at 1 uM relative to control.

In assay [16] the target is T1, Dual specificity protein kinase CLK1. Briefly: Inhibition of human recombinant GST-tagged Clk1 (129 to 484 residues) expressed in Escherichia coli expression system at 100 nM using GRSRSRSRSRSRSRS peptide as substrate incubated for 15 mins in presence of ATP by phosphoimager analysis relative to control.
Target sequence in this assay (P49759 whole entry, looked up, the tested form may be a part): as the sequence (P49759 whole entry, the tested form may be a part) above
Assay [17] has as its target T2, Dual specificity protein kinase CLK4. Briefly: Inhibition of human recombinant GST tagged full length CLK4 expressed in Baculovirus expression system at 1 uM relative to control.
Target sequence in this assay (Q9HAZ1 whole entry, looked up): as the sequence (Q9HAZ1 whole entry) above
Assay [18] deals with Cyclin-dependent kinase 5/CDK5 activator 1 (Homo sapiens) (UniProt Q00535+Q15078). Briefly: Inhibition of human recombinant GST tagged/His-tagged full length CDK5/p25 expressed in Baculovirus expression system at 1 uM relative to control.
The target in assay [19] is Casein kinase I isoform delta (Homo sapiens) (UniProt P48730). The assay is described as follows: Inhibition of human recombinant GST tagged full length CSNK1D expressed in Baculovirus expression system at 1 uM relative to control.
Sequence of Casein kinase I isoform delta (Homo sapiens) (P48730 whole entry, looked up, canonical isoform): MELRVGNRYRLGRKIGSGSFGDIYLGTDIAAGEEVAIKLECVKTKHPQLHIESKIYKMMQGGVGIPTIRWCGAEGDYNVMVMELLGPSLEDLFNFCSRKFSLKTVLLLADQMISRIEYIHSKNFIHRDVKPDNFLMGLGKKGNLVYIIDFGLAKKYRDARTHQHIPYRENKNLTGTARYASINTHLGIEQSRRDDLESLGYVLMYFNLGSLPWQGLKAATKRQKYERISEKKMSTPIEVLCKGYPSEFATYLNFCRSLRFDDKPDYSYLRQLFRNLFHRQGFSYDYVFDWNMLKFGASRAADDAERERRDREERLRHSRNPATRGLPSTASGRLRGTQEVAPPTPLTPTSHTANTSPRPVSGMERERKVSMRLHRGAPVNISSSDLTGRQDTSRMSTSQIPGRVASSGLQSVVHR

By IC50 is commonly meant the point on the concentration scale where inhibition reaches its midpoint. Broadly, the inhibition is the share of the control response that was lost under treatment. What is called GI50 is the concentration giving 50% growth inhibition.

Sequence of Dual specificity protein kinase CLK3 (Homo sapiens) (P49761 whole entry, looked up): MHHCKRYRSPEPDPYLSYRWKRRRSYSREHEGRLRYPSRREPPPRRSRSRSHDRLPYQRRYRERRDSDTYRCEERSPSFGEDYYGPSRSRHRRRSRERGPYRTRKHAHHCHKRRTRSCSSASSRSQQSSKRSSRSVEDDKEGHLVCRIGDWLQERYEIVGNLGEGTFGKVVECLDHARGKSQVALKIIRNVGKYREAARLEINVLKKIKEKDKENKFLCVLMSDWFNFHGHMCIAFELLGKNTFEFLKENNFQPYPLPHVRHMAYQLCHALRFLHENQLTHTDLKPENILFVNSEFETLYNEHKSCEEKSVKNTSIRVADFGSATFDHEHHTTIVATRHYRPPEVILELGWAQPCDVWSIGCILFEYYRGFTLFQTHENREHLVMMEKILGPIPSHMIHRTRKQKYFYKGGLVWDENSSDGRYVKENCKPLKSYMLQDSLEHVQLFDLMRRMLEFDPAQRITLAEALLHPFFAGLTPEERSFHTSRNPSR
Sequence of SRSF protein kinase 1 (Homo sapiens) (Q96SB4 whole entry): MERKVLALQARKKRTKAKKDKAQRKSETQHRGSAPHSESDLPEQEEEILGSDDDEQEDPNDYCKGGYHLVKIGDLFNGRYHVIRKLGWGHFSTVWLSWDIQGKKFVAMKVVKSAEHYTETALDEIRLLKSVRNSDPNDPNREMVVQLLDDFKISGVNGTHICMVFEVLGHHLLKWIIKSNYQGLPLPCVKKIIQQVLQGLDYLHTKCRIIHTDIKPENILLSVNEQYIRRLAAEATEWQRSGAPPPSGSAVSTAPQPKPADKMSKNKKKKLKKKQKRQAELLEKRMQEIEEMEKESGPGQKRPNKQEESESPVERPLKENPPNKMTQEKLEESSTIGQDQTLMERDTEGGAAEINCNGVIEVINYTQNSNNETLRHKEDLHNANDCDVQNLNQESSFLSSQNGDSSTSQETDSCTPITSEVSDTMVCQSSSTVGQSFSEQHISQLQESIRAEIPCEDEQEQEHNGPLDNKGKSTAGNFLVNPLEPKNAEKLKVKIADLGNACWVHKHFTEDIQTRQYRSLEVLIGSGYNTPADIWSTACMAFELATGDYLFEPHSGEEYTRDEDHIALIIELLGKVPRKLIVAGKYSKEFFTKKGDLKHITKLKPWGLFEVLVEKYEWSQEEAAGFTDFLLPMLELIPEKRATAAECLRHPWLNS
Sequence of Serine/threonine-protein kinase pim-1 (Homo sapiens) (P11309 whole entry, looked up): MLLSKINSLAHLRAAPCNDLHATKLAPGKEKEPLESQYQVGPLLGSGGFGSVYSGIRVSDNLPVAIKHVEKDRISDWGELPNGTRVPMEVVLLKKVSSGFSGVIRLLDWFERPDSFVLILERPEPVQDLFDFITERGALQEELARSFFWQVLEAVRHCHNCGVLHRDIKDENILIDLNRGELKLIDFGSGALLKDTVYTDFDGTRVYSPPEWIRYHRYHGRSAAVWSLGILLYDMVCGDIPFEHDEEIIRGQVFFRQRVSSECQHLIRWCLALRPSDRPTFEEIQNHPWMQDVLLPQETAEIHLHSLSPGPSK
Sequence of BDNF/NT-3 growth factors receptor (Homo sapiens) (Q16620 32-822 limits assumed): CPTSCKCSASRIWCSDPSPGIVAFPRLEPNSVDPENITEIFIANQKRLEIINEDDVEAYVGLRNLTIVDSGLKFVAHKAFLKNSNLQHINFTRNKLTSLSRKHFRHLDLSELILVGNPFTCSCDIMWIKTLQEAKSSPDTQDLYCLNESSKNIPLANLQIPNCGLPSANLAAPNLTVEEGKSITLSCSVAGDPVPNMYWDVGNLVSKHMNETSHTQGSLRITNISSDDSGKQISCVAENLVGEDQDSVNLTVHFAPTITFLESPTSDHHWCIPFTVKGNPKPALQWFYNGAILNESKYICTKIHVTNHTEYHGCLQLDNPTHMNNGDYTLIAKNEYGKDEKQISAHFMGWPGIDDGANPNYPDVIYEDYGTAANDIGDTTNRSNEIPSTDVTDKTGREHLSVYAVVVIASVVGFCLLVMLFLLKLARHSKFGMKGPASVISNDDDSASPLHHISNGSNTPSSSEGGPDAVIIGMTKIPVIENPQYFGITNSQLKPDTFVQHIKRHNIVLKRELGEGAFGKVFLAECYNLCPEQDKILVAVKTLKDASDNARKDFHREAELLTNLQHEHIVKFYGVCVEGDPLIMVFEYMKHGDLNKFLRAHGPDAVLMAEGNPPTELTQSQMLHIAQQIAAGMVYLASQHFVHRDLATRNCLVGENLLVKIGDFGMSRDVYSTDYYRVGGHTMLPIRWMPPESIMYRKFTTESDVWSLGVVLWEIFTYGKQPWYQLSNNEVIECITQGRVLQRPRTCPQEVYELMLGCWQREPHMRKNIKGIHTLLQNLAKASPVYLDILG

Turning to `COc1ccc2sc(C(=O)NC(=O)c3cc(Cl)ccc3OC)cc2c1`, the results for the IC50 in [1], in assay [3] and in assay [8] were 9.7 nM, 6.6 nM and 486 nM, respectively. The inhibition in assay [2] is 4%; in [5], 57%; in assay [6], 19.9%; in assay [7], 45%; in assay [9] it was 8%; in [10], 3%. The inhibition in assay [12] came to 31%; in assay [13], 1%; in assay [14] it was 24%; in assay [15], 14%; in assay [16], 87.1%; in assay [17], 45%. For the same compound, the inhibition was found to be 3% in [18] and 7% in [19]. Further, in [4], the Ratio IC50 is 50. Moreover, the 50% growth inhibitory concentration (GI50) in assay [11] worked out at 1100 nM.
